In assay [1] the test system is female mice fed with a Western diet. How it is done:
(§1) FIG. 1A depicts a representative illustration of the experimental system used to study the effects of DHT on metabolism. Mice were fed with a Western diet (WD). At 45 days of age, one group of mice were administered DHT via pellet at Week 0 and at Week 4-5 (WD+DHT). One group of WD fed mice were not administered with DHT (WD). Mice were euthanized at Week 8. Ex vivo lipolysis, histology and molecular studies were performed.

Assay [2] deals with prolow-density lipoprotein-related protein 1. The settings on record: DHT with WD vs WD alone. How it is done: as §1
Another assay relates to regucalcin. The settings on record: WD+DHT vs WD mice. How it is done:
as §1

The test system of the next assay is mice fed with WD. The settings on record: WD 8 weeks then DHT 3 weeks under WD vs WD alone 11 weeks; FIG. 5.

For `C[C@]12CCC(=O)C[C@@H]1CC[C@@H]1[C@@H]2CC[C@]2(C)[C@@H](O)CC[C@@H]12` [DHT, dihydrotestosterone], the “brown adipose cell size (histology)” value in assay [1] (DHT with WD mice) was “enlarged”. Besides, in assay [1] (WD+DHT vs WD mice), the “triglyceride (TG) in circulation” value is on record as “Significantly elevated levels”. Moreover, the “fat in liver (liver images)” value in assay [1] (WD+DHT vs WD mice, FIG. 1C) was “lower levels of fat”. The liver triglyceride level result in assay [1] (WD+DHT vs WD mice, FIG. 2A) was “lower levels”. Moreover, the liver cholesterol level result in assay [1] (WD+DHT vs WD mice, FIG. 2B) is listed as “lower levels”. Also, the “liver lipid deposition (oil red and H&E staining, histology)” value in assay [1] (WD+DHT vs WD mice, FIG. 4) is recorded as “decreased lipid deposition”. In assay [1] (at 3 weeks, DHT with WD vs WD alone, adult female mice), the glucose tolerance entry is listed as “more impaired glucose intolerance”. In addition, in assay [1] (at 6-7 weeks, DHT with WD vs WD alone, adult female mice), the pyruvate tolerance entry is listed as “more impaired pyruvate tolerance”. Also, the “prolow-density lipoprotein-related protein 1 in liver” value in assay [2] is reported as “significantly altered”. Further, the regucalcin in liver entry with regucalcin was “significantly altered”. Further, the liver triglyceride result with mice fed with WD is reported as “lower triglyceride”.

Source of the values: US20250041316A1, “METHODS AND COMPOSITIONS FOR TREATING LIVER DISEASE” (Temple University-Of The Commonwealth System of Higher …, priority 2023, published 2025).
